Results from patent publication US20240269139A1, “COMPOUNDS FOR TARGETED PROTEIN DEGRADATION OF KINASES” (DANA-FARBER CANCER INSTITUTE, INC., priority 2020, published 2024).
Read-outs that look alike come from different tables or passages of the source.

Tests used:
[1] = target: protein kinases (human kinome) (Homo sapiens, UniProt P45984); type: cell-based; conditions: MAPK9 P45984-1
[2] = target: protein kinases (human kinome) (Homo sapiens, UniProt Q9NYV4); type: cell-based
[3] = target: protein kinases (human kinome) (Homo sapiens, UniProt P24941); type: cell-based
[4] = target: protein kinases (human kinome) (Homo sapiens, UniProt Q14004); type: cell-based; conditions: for logFC CDK13: Accession Q14004-1
[5] = target: protein kinases (human kinome) (Homo sapiens, UniProt Q13233); type: cell-based
Sequence of protein kinases (human kinome) (Homo sapiens, UniProt Q13233) (Q13233 whole entry): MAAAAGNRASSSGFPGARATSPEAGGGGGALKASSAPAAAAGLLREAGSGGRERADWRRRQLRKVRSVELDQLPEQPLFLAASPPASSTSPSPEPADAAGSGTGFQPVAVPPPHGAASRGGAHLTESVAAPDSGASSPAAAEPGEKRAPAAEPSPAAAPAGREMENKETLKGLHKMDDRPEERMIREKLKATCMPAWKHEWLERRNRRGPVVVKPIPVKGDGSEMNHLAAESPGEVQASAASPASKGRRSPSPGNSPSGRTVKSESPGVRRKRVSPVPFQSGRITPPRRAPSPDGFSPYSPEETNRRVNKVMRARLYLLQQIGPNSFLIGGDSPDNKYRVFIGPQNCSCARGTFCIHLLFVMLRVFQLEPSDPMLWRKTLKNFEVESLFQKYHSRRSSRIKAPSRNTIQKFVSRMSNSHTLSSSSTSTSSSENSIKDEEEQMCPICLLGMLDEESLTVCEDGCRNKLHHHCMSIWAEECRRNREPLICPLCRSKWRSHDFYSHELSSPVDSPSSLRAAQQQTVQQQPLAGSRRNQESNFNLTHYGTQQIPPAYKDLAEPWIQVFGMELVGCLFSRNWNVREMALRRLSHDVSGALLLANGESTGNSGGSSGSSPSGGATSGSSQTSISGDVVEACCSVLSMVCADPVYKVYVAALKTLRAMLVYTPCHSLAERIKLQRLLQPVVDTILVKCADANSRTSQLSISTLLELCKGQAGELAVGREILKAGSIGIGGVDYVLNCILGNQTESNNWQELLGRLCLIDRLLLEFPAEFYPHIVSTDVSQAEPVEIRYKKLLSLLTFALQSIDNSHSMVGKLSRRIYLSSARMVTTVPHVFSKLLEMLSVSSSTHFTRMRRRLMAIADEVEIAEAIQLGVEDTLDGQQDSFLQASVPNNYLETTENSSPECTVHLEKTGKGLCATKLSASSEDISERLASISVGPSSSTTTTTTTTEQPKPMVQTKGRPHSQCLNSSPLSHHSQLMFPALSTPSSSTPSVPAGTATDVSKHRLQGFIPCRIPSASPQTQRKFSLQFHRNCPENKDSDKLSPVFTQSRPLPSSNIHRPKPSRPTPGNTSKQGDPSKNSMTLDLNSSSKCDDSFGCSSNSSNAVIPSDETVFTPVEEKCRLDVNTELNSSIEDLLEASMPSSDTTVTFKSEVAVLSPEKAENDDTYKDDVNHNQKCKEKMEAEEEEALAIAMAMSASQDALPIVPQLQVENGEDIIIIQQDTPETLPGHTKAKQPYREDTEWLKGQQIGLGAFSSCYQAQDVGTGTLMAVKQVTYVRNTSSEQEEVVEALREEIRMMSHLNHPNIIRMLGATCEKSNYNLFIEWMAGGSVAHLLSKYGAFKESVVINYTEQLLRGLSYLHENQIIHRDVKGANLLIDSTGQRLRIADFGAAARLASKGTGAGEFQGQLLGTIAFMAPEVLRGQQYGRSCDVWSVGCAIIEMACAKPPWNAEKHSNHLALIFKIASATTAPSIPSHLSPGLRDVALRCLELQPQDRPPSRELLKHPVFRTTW

[6] = target: protein kinases (human kinome) (Homo sapiens, UniProt Q9HBH9); type: cell-based; conditions: for logFC MKNK2 (Q9HBH9-1): direction down; for logFC: MKNK2 (Q9HBH9-1)
[7] = target: protein kinases (human kinome) (Homo sapiens, UniProt P41240); type: cell-based; conditions: for logFC of CSK: Accession P41240; for logFC CSK: CSK (P41240), down
Sequence of protein kinases (human kinome) (Homo sapiens, UniProt P41240) (P41240 whole entry): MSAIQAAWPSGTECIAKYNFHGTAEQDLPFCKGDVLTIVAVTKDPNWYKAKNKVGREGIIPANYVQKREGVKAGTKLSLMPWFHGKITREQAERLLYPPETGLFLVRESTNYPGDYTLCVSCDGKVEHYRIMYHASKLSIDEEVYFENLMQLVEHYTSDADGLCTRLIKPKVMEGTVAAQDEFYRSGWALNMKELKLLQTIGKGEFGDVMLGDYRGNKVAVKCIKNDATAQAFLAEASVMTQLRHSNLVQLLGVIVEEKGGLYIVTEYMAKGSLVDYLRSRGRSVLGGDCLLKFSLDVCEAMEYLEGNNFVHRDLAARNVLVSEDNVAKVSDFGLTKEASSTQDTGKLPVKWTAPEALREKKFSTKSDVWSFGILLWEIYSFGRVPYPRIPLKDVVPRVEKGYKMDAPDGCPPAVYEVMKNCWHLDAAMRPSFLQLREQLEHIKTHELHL

[8] = target: T1, extended human kinome (kinase-like proteins) (Homo sapiens, UniProt Q53R41); test: Whole cell quantitative proteomics: extended kinome hits
T1 sequence (Q53R41 1-847): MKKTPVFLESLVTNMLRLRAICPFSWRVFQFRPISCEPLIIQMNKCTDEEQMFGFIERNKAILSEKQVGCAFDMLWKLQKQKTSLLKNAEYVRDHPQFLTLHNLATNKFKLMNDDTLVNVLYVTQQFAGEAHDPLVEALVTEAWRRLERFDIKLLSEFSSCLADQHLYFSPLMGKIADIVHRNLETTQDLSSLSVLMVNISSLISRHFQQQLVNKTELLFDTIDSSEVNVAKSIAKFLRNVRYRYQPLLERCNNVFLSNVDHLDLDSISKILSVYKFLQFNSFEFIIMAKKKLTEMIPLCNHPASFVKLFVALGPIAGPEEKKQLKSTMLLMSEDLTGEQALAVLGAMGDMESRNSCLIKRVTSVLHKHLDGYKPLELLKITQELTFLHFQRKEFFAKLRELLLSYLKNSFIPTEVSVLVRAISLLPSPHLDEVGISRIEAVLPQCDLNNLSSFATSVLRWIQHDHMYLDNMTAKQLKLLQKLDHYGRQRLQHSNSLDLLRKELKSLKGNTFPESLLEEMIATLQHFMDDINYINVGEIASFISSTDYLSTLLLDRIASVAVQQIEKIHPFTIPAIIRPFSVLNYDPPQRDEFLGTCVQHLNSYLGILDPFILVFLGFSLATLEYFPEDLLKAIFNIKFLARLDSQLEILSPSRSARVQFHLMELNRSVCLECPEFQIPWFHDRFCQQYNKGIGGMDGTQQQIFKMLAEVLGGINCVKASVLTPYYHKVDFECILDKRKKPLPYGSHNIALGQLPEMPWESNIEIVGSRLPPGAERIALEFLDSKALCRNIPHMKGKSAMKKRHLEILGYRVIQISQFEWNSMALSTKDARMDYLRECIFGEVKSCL
Procedure: Whole cell multiplexed quantitative proteomics was employed to measure changes in abundance of the proteome in response to treatment with each of the kinase degrader molecules relative to DMSO (Table 1, Appendix I).
Cells were treated with DMSO (biological triplicate) or degrader at indicated dose and time and cells were harvested by centrifugation. […] Precipitated protein was resuspended in 4 M Urea, 50 mM HEPES pH 7.4, followed by dilution to 1 M urea with the addition of 200 mM EPPS, pH 8. Proteins were first digested with LysC (1:50: enzyme:protein) for 12 hours at room temperature. The LysC digestion was diluted to 0.5 M Urea with 200 mM EPPS pH 8 followed by digestion with trypsin (1:50; enzyme:protein) for 6 hours at 37° C. Tandem mass tag (TMT) reagents (Thermo Fisher Scientific) were dissolved in anhydrous acetonitrile (ACN) according to manufacturer's instructions. […] The 10, 11, or 16-plex labeling reactions were performed for 1.5 hours at room temperature and the reaction quenched by the addition of hydroxylamine to a final concentration of 0.3% for 15 minutes at room temperature. The sample channels were combined at a 1:1 ratio, desalted using C18 solid phase extraction cartridges (Waters®) and analyzed by LC-MS for channel ratio comparison. Samples were then combined using the adjusted volumes determined in the channel ratio analysis and dried down in a speed vacuum. The combined sample was then resuspended in 1% formic acid, and acidified (pH 2-3) before being subjected to desalting with C18 SPE (Sep-Pak®, Waters®). Samples were then offline fractionated into 96 fractions by high pH reverse-phase HPLC (Agilent® LC1260) through an aeris peptide xb-c18 column (Phenomenex®) with mobile phase A containing 5% acetonitrile and 10 mM NH4HCO3 in LC-MS grade H2O, and mobile phase B containing 90% acetonitrile and 10 mM NH4HCO3 in LC-MS grade H2O (both pH 8.0). The 96 resulting fractions were then pooled in a non-continuous manner into 24 fractions and desalted using C18 solid phase extraction plates (SOLA®, Thermo Fisher Scientific) followed by subsequent mass spectrometry analysis.
Data were collected using an Orbitrap Fusion™ Lumos™ mass spectrometer (Thermo Fisher Scientific, San Jose, CA, USA) coupled with a Proxeon EASY-nLC™ 1200 LC pump (Thermo Fisher Scientific) or an Orbitrap Eclipse™ Tribrid™ mass spectrometer (Thermo Fisher Scientific, San Jose, CA, USA) coupled with an UltiMate™ 3000 RSLCnano System. Peptides were separated on an EasySpray™ ES803a/ES803a.rev2 75 μm inner diameter microcapillary column (ThermoFisher Scientific).
Data dependent MS2 spectra were acquired in the ion trap with a normalized collision energy (NCE) set at 35%, AGC target set to 1.8×10^4 and a maximum injection time of 120 ms. MS3 scans were acquired in the Orbitrap with HCD collision energy set to 55%. AGC target set to 2×10^5, maximum injection time of 150 ms, resolution at 50,000 and with a maximum synchronous precursor selection (SPS) precursors set to 10.
Proteome Discoverer™ 2.1, 2.2 or 2.4 (Thermo Fisher Scientific) was used for .RAW file processing and controlling peptide and protein level false discovery rates, assembling proteins from peptides, and protein quantification from peptides.

[9] = target: protein kinases (human kinome) (Homo sapiens, UniProt Q15119); type: cell-based; conditions: experiment wp056
[10] = target: protein kinases (human kinome) (Homo sapiens, UniProt P07947); type: cell-based; conditions: YES1 (P07947)
Sequence of protein kinases (human kinome) (Homo sapiens, UniProt P07947) (P07947 whole entry): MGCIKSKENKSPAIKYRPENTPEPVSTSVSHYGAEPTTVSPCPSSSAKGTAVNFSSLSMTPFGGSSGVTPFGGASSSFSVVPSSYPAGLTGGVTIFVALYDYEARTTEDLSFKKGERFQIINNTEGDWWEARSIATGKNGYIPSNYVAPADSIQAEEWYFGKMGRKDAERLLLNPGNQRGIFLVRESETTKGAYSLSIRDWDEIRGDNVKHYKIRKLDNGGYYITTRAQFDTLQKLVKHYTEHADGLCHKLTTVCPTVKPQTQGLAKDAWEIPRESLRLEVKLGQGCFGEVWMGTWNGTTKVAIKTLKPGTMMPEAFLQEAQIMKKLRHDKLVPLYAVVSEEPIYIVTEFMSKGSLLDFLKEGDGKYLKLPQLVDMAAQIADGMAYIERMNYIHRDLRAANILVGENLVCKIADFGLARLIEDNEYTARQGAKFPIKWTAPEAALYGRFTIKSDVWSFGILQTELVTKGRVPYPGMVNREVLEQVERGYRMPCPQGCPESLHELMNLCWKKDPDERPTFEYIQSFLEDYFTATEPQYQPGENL

[11] = target: protein kinases (human kinome) (Homo sapiens, UniProt Q15118); type: cell-based; conditions: PDK1 Q15118
Sequence of protein kinases (human kinome) (Homo sapiens, UniProt Q15118) (Q15118 29-436): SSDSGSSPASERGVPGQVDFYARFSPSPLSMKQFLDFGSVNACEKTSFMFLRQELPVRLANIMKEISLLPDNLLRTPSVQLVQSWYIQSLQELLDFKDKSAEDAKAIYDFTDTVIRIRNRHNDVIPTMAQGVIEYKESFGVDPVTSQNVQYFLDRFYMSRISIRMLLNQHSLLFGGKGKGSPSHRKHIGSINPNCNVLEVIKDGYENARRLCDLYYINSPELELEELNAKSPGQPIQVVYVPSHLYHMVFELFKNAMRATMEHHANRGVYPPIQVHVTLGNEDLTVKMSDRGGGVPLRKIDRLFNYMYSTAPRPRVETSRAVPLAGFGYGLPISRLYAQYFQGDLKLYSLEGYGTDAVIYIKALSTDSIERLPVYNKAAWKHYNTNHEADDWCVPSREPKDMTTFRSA

[12] = Accession Q13233, experiment wp076, direction down
[13] = MAP3K1 (Q13233), experiment wp076
[14] = Accession Q13233, experiment wp056, direction down
[15] = Accession Q13233, experiment wp107, direction down
[16] = MAP3K1 (Q13233), experiment wp056
[17] = MAP3K1 (Q13233), experiment wp107
[18] = Accession Q9NYV4-1, experiment wp146
[19] = CDK12 (Q9NYV4-1), experiment wp146
[20] = experiment wp146, direction of change down

Sequence of protein kinases (human kinome) (Homo sapiens, UniProt P45984) (P45984 whole entry): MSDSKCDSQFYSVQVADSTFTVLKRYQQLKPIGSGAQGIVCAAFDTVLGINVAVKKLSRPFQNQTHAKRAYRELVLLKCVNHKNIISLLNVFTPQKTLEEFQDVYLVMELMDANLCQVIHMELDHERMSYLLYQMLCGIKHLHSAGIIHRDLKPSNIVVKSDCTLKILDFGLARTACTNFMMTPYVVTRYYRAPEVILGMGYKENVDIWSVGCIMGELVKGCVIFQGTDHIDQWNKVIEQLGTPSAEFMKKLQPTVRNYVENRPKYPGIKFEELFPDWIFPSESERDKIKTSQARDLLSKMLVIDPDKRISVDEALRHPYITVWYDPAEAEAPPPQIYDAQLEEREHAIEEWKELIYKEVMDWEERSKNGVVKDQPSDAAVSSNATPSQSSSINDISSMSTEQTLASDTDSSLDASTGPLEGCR
Sequence of protein kinases (human kinome) (Homo sapiens, UniProt Q9NYV4) (Q9NYV4 whole entry): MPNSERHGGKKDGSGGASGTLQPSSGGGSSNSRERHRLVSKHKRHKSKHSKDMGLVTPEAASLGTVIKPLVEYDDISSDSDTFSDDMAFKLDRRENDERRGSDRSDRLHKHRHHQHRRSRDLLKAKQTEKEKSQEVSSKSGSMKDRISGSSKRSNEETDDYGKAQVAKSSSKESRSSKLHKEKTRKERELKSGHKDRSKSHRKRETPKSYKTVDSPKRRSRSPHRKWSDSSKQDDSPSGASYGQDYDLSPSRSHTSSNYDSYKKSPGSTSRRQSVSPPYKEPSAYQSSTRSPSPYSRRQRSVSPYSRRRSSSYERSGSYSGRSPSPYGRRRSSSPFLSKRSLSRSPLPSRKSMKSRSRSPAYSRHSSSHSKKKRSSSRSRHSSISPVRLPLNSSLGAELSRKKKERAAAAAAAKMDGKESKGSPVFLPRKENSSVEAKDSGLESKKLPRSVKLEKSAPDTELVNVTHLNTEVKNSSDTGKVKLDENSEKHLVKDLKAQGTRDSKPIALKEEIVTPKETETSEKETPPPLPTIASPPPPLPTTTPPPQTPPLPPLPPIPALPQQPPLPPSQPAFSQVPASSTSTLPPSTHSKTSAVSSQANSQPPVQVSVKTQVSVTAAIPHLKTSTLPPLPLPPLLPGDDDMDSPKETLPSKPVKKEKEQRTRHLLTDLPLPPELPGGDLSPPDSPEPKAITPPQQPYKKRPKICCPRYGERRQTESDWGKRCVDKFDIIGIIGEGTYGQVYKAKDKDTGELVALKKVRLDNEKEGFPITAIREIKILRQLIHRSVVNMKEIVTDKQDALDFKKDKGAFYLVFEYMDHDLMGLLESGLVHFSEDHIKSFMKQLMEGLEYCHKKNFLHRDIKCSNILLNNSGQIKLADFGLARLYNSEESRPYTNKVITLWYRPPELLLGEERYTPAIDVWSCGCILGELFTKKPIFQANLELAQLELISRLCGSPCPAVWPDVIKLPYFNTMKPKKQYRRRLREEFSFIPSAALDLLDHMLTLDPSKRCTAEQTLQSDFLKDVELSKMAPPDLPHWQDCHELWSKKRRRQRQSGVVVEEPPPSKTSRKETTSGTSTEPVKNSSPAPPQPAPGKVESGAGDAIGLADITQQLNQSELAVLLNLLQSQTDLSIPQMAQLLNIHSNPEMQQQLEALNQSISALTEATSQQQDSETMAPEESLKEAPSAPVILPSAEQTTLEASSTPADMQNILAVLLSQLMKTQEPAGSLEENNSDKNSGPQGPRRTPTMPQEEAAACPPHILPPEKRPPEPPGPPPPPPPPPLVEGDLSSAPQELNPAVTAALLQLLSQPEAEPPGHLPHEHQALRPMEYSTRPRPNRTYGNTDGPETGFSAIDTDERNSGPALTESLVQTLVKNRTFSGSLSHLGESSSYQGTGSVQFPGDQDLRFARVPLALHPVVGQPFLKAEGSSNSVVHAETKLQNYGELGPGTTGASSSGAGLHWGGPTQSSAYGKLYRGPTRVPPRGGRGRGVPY

## CS(=O)(=O)Nc1cccc(-c2csc3cnc(Nc4ccc(N5CCN(CCCCCOc6cccc7c6C(=O)N(C6CCC(=O)NC6=O)C7=O)CC5)cc4)nc23)c1 (stereo not drawn) [DB0614, N-(3-(2-((4-(4-(5-((2-(2,6-Dioxopiperidin-3-yl)-1,3-dioxoisoindolin-4-yl)oxy)pentyl)piperazin-1-yl)phenyl)amino)thieno[3,2-d]pyrimidin-7-yl)phenyl)methanesulfonamide]
[1]; experiment wp045
  logFC: −0.5244
  logFC MAPK9: −0.5244
[1]; experiment wp117
  logFC: −0.564
  logFC MAPK9: −0.564

## Cc1ncsc1-c1ccc([C@H](C)NC(=O)[C@@H]2C[C@@H](O)CN2C(=O)[C@@H](NC(=O)CCOCCOCCN2CCN(c3ccc(Nc4ncc(Cl)c(Nc5ccccc5S(=O)(=O)C(C)C)n4)cc3)CC2)C(C)(C)C)cc1 [FMF.06.098.1]
[2]; Accession Q9NYV4-1, experiment wp131
  logFC CDK12: −0.5732
[2]; CDK12 (Q9NYV4-1), experiment wp131
  logFC CDK12: −0.5732
[3]; Experiment wp108
  logFC CDK2 (P24941-1): −0.6501
[3]; experiment wp108, direction of change down
  logFC CDK2 (P24941-1): −0.6501
[3]; experiment wp131
  logFC CDK2 (P24941-1): −0.8725
[3]; experiment wp131, direction of change down
  logFC CDK2 (P24941-1): −0.8725
[4]; experiment wp108
  logFC CDK13: −0.3664
[4]; experiment wp131
  logFC CDK13: −0.4981
  logFC CDK13 (Q14004-1): −0.4981
[4]; Experiment wp108
  logFC CDK13 (Q14004-1): −0.3664

## CCc1cnn2c(N(Cc3ccc(N)nc3)C(=O)CCOCCOCCOCCNC(=O)CNc3cccc4c3C(=O)N(C3CCC(=O)NC3=O)C4=O)cc(N3CCCC[C@H]3CCO)nc12 (stereo partly drawn) [MFH.5.115.2]
[5]; [12]
  logFC MAP3K1: −0.3528
[5]; [13]
  logFC MAP3K1: −0.3528

## O=C1CCC(N2C(=O)c3cccc(NCCCCCCCCN4CCC(NC(=O)c5[nH]ncc5NC(=O)c5c(Cl)cccc5Cl)CC4)c3C2=O)C(=O)N1 (stereo not drawn) [MFH.5.126.1]
[5]; [12]
  logFC MAP3K1: −0.5947
[5]; [13]
  logFC MAP3K1: −0.5947
[4]; experiment wp076
  logFC CDK13: −0.4846
  logFC CDK13 (Q14004-1): −0.4846

## Cc1ncsc1-c1ccc([C@H](C)NC(=O)[C@@H]2C[C@@H](O)CN2C(=O)[C@@H](NC(=O)CCCCCN2CCN(c3ccc(Nc4ncc5scc(-c6cccc(NS(C)(=O)=O)c6)c5n4)cc3)CC2)C(C)(C)C)cc1 [RSS0680, (2S,4R)-1-((S)-3,3-Dimethyl-2-(6-(4-(4-((7-(3-(methylsulfonamido)phenyl)thieno[3,2-d]pyrimidin-2-yl)amino)phenyl)piperazin-1-yl)hexanamido)butanoyl)-4-hydroxy-N—((S)-1-(4-(4-methylthiazol-5yl)phenyl)ethyl)pyrrolidine-2-carboxamide]
[3]; Experiment wp117
  logFC CDK2 (P24941-1): −0.6588
[3]; experiment wp080
  logFC CDK2 (P24941-1): −0.4202
[3]; experiment wp080, direction of change down
  logFC CDK2 (P24941-1): −0.4202
[3]; experiment wp117, direction of change down
  logFC CDK2 (P24941-1): −0.6588
[6]; Experiment wp080
  logFC MKNK2 (Q9HBH9-1): −0.4987
[6]; Experiment wp117
  logFC MKNK2 (Q9HBH9-1): −0.5075
[6]; experiment wp080
  logFC: −0.4987
[6]; experiment wp117
  logFC: −0.5075

## Nc1ncnc2c1c(-c1ccc(Oc3ccccc3)cc1)nn2[C@H]1CC[C@H](N2CCN(CCOCCNC(=O)CNc3cccc4c3C(=O)N(C3CCC(=O)NC3=O)C4=O)CC2)CC1 (stereo partly drawn) [SB1.G.181]
[7]; experiment wp071
  logFC of CSK: −3.229
  logFC CSK: −3.229

## Cc1ccc(C(=O)Nc2ccc(CN3CCN(CCCOCCOCCOCCNC(=O)COc4cccc5c4C(=O)N(C4CCC(=O)NC4=O)C5=O)CC3)c(C(F)(F)F)c2)cc1C#Cc1cnc2cccnn12 (stereo not drawn) [SB1.G.187]
[8]; Accession Q53R41, experiment wp056
  logFC FASTKD1: −0.4811
[9]; Accession Q15119-1
  logFC PDK2: −0.4016
[9]
  logFC PDK2 (Q15119-1): −0.4016
[10]; experiment wp172
  logFC: −0.5324
[10]; experiment wp172, direction down
  logFC: −0.5324
[11]; experiment wp056
  logFC: −0.4134
  logFC PDK1: −0.4134
[5]; [14]
  logFC MAP3K1: −0.7809
[5]; Accession Q13233, experiment wp103, direction down
  logFC MAP3K1: −0.5815
[5]; [15]
  logFC MAP3K1: −0.6693
[5]; [16]
  logFC MAP3K1: −0.7809
[5]; MAP3K1 (Q13233), experiment wp103
  logFC MAP3K1: −0.5815
[5]; [17]
  logFC MAP3K1: −0.6693

## Cn1c(=O)c(-c2c(Cl)cccc2Cl)cc2cnc(Nc3ccc(OCCNC(=O)CCCCCCNC(=O)COc4cccc5c4C(=O)N(C4CCC(=O)NC4=O)C5=O)cc3)nc21 (stereo not drawn) [SB1.G.192.1]
[8]; experiment wp081
  logFC FASTKD1 (Q53R41): −0.4222
[10]; experiment wp131
  logFC: −1.244
[10]; experiment wp131, direction down
  logFC: −1.244
[11]; experiment wp081
  logFC: −0.3388
  logFC PDK1: −0.3388
[7]; experiment wp071
  logFC of CSK: −2.271
  logFC CSK: −2.271
[7]; experiment wp081
  logFC of CSK: −1.966
  logFC CSK: −1.966
[7]; experiment wp131
  logFC of CSK: −1.816
  logFC CSK: −1.816

## CC(C)S(=O)(=O)c1ccccc1Nc1nc(Nc2ccc(N3CCN(CCOCCNC(=O)CNc4ccc5c(c4)C(=O)N(C4CCC(=O)NC4=O)C5=O)CC3)cc2)ncc1Cl (stereo not drawn) [SK.3.93]
[2]; Accession Q9NYV4-1, experiment wp016
  logFC CDK12: −0.9555
[2]; CDK12 (Q9NYV4-1), experiment wp016
  logFC CDK12: −0.9555
[3]; experiment wp016
  logFC CDK2 (P24941-1): −0.5433
[3]; experiment wp016, direction of change down
  logFC CDK2 (P24941-1): −0.5433
[4]; experiment wp016
  logFC CDK13: −0.5636
  logFC CDK13 (Q14004-1): −0.5636

## CC(C)S(=O)(=O)c1ccccc1Nc1nc(Nc2ccc(N3CCN(CCOCCOCCC(=O)NCCNc4cccc5c4CN(C4CCC(=O)NC4=O)C5=O)CC3)cc2)ncc1Cl (stereo not drawn) [TL13.97]
[8]; experiment wp137
  logFC FASTKD1 (Q53R41): −0.3684
[3]; experiment wp137
  logFC CDK2 (P24941-1): −0.7834
[3]; experiment wp137, direction of change down
  logFC CDK2 (P24941-1): −0.7834
[4]; experiment wp137
  logFC CDK13: −0.7359
  logFC CDK13 (Q14004-1): −0.7359

## NC(=O)c1c(F)cccc1Nc1nc(Nc2ccc(S(=O)(=O)NCCOCCOCCOCCOCCNc3cccc4c3C(=O)N(C3CCC(=O)NC3=O)C4=O)cc2)ncc1Br (stereo not drawn) [TMX.02.138]
[2]; [18]
  logFC CDK12: −1.018
[2]; [19]
  logFC CDK12: −1.018
[1]; experiment wp146
  logFC: −1.518
  logFC MAPK9: −1.518
[3]; experiment wp146
  logFC CDK2 (P24941-1): −2.27
[3]; [20]
  logFC CDK2 (P24941-1): −2.27

## Cc1cc(Nc2ncc(Br)c(Nc3cccc(F)c3C(N)=O)n2)ccc1S(=O)(=O)NCCOCCOCCOCCOCCNc1cccc2c1C(=O)N(C1CCC(=O)NC1=O)C2=O (stereo not drawn) [TMX.02.174]
[2]; [18]
  logFC CDK12: −0.8562
[2]; [19]
  logFC CDK12: −0.8562
[1]; experiment wp146
  logFC: −1.031
  logFC MAPK9: −1.031
[3]; experiment wp146
  logFC CDK2 (P24941-1): −2.295
[3]; [20]
  logFC CDK2 (P24941-1): −2.295

## Nc1ncc(-c2ccc(S(=O)(=O)N(CCCNC(=O)CCOCCOCCOCCOCCOCCNc3cccc4c3C(=O)N(C3CCC(=O)NC3=O)C4=O)C3CC3)cc2)cc1-c1ccc2c(c1)CCNC2=O (stereo not drawn) [WH.10417.099]
[5]; [14]
  logFC MAP3K1: −0.5034
[5]; [15]
  logFC MAP3K1: −0.4673
[5]; [16]
  logFC MAP3K1: −0.5034
[5]; [17]
  logFC MAP3K1: −0.4673
